Data from patent US9302014B2, “Cell-penetrating peptides having a central hydrophobic domain” (Medical Research Council, priority 2011, dated 2016).
Non-standard residues stand in square brackets, D forms with d. No end group written: not given here. Ahx = NCCCCCC(=O)O; βAla = NCCC(=O)O

Key:
dystrophin [1] = assay: Immunohistochemical staining and quantification of dystrophin in mdx mice after single IV injection; assay type: in vivo; conditions: 8 week old mdx mice, single 12.5 mg/kg IV, 2 weeks after injection
Excerpt: (§1) Given the potency of Pip5e-PMO in heart tissue, the aim of altering the sequence of the hydrophobic core (whilst maintaining the 5-aa length) was to identify peptides that might be more efficient at lower doses. These modifications included inversion of the hydrophobic region (Pip6a), substitution of tyrosine by isoleucine (Pip6b), substitution of glutamine in the Pip6a sequence by displacement of the arginine immediately flanking the core in the first arginine-rich flanking region (Pip6e), and a scrambled hydrophobic core sequence (Pip6f). All Pip6 peptide-PMO conjugates were administered to mdx mice as single 12.5 mg/kg intravenous injections via the tail vein and tissues were harvested 2 weeks later and assessed for activity at both RNA and protein levels.
Immunohistochemical staining quantification (FIGS. 34a, b) was performed as previously described [Malerba, A., et al., Chronic systemic therapy with low-dose morpholino oligomers ameliorates the pathology and normalizes locomotor behavior in mdx mice. Mol Ther, 2011. 19(2): p. 345-54; Arechavala-Gomeza, V., et al., Immunohistological intensity measurements as a tool to assess sarcolemma-associated protein expression. Neuropathol Appl Neurobiol, 2010. 36(4): p. 265-74.] and was achieved by taking 4 representative frames of the dystrophin staining and correlating this with laminin staining for each section (n=3) of the quadriceps, diaphragm and heart for each peptide-PMO treatment. Untreated mdx and treated mdx mice were normalised to C57BL10 mice. This method allows comparison of the staining intensity of dystrophin at the sarcolemma relative to laminin for each treatment group. Intensity ratios are normalised to C57BL10 samples and each region of interest at the sarcolemma (120 regions for each treatment group) is plotted on a scatter graph. […]
Transverse sections of tissue samples were cut (8 μm thick) for the examination of dystrophin expression. For dystrophin visualisation and quantification, sections were co-stained with rabbit-anti-dystrophin (Abcam) and rat anti-laminin (Sigma), and detected by goat-anti-rabbit IgG Alexa 594 and goat-anti-rat IgG 488 secondary antibodies respectively (Invitrogen). […] Quantitative immunohistochemistry was performed as previously described [Malerba, A., et al., Chronic systemic therapy with low-dose morpholino oligomers ameliorates the pathology and normalizes locomotor behavior in mdx mice. […] For quantification, 4 representative frames of the dystrophin and correlating laminin were taken for each section (n=3) of the quadriceps, diaphragm and heart for each treatment. […] The minimum and maximum fluorescence intensity for 120 regions were recorded for each treatment. […]

dystrophin [2] = assay: In vivo exon skipping and dystrophin production in mdx mice (combined RNA and protein read-outs); conditions: lead PPMO comparison; TA, quadriceps, diaphragm and heart; 8 week old mdx mice, 12.5 mg/kg IV, 2 weeks
Excerpt: as §1, with “levels. […]” for “levels.”
Immunohistochemical staining (data not shown) was used to visualise the production of dystrophin protein (and its correct re-location at the sarcolemma) and RT-PCR was used to detect exon-skipped products in treated mdx muscle groups. qPCR allows for the quantification of the spliced product and Western blots were used to quantify the amount of dystrophin protein produced in muscles from treated mdx mice as compared with C57BL10 and untreated mdx controls. […]

Pip9d2: Pip9 series peptide (SEQ ID Nos 320-328) conjugated to PMODMD (R[Ahx]RR[βAla]RFQILY[βAla]R[Ahx]R[βAla]; also: conjugated to PMO (PMODMD))
dystrophin expression in the heart (dystrophin [1]): negligible dystrophin production | levels of exon-skipped dystrophin RNA and protein (dystrophin [2]): negligible dystrophin production
